Values quoted from earlier work in patent publication US12187744B2, “IRAK4 degraders and synthesis thereof” (Kymera Therapeutics, Inc., priority 2021, dated 2025).

Columns and labels:
[1] = per ICH M7(R1) guidance
[2] = in vivo

| Structure (SMILES) | ICH M7(R1) Class [1] | results in rodent carcinogenicity assays [2] |
| --- | --- | --- |
| CC(C)Cl [Isopropyl chloride] | 2 |  |
| CI [Methyl iodide] |  | positive |
